Measurements published in patent US9540389B2, “Antimicrobial potentiators” (priority 2013, dated 2017).

Assays:
[1] = tested on: Escherichia coli AB1157 ΔacrB; assay: MIC assay (microbroth dilution); type: cell-based; conditions: for MIC: Escherichia coli, read-out: MICs (μg/ml) ΔacrB None; for MIC Ratio ΔacrB: MIC WT/MIC ΔacrB; for MICs (μg/ml) ΔacrB None: ΔacrB strain, no EPI, geometric mean
Text: (§1) • Strains and Reagents. The following strains were obtained from the Keio collection (Baba, et al.: Construction of Escherichia coli K-12 in-frame, single-gene knockout mutants: the Keio collection. In Mol Syst Biol, vol. 2, pp. 2006 0008, (2006)): JW0451 (ΔacrB::kan), JW5503 (ΔtolC::kan), JW3234 (ΔacrF::kan), JW2661 (ΔemrB::kan), JW0863 (ΔmacB::kan). The deletion mutations in each of these strains were transferred to AB1157 using P1 phage transduction (see Table 1). The construction of the E. coli cell-based reporter strain (SOS-XXX) that was used for high throughput screening is described in detail in the supplementary information. […] Irgasan was a generous gift from Ciba Speciality Chemicals, Inc. (High Point, N.C.). Hoechst 33342 (H33342) was purchased from Molecular Probes (Eugene, Oreg.). […] Luria Broth (Miller) and agar were purchased as prepared dehydrated media from Becton Dickenson (Franklin Lakes, N.J.). The compound libraries used in high-throughput screens were purchased from Chembridge (San Diego, Calif.), ChemDiv (San Diego, Calif.), and TimTec (Newark, Del.). MBX2319 was synthesized by Microbiotix, Inc. • Antibacterial Activity Assays. The minimal inhibitory concentration (MIC) of antibacterial agents and biocides were determined using the microbroth dilution method essentially as described in the CLSI protocol M7-A7 (CLSI: Method for dilution antimicrobial susceptibility testing for bacteria that grow aerobically; Approved standard-document M7-A7. In Clinical and Laboratory Standards Institute document M7-A7, Clinical and Laboratory Standards Institute, Wayne, Pa., (2006)), with the following exceptions. LB media was used instead of MHB. […] The final concentration of DMSO in each assay was 2%. […] MIC assays were performed in triplicate and the geometric mean was calculated. Checkerboard MIC assays using an EPI and an antibacterial agent were performed essentially as described (Pillai, et al.: Antimicrobial Combinations. In Antibiotics in Laboratory Medicine, ed. by V. Lorian, pp. 365-440, Lippincott Williams & Wilkins, Philadelphia, Pa., (2005)), with the same modifications used for the MIC assays described above. • Time-Kill Assays. Killing curve assays were performed essentially as described (Pillai, et al.: Antimicrobial Combinations. In Antibiotics in Laboratory Medicine, ed. by V. Lorian, pp. 365-440, Lippincott Williams & Wilkins, Philadelphia, Pa., (2005)). Exponential bacterial cultures grown in LB were diluted to a cell density of ˜1×10^7 in LB followed by addition of CIP and/or an EPI. Viability was monitored over 2-4 hours by making serial dilutions in saline and spotting 5 μl of each dilution onto the surface of an LB agar plate in triplicate. Colonies were counted after the plates were incubated at 37° C. for 16-18 hr, colony forming units (CFU) per ml were calculated, and the average and standard deviation for the three replicates was determined. For treatments that decreased CFU/ml below the limit of detection for the spot plating method, the 100 μl samples were diluted into 5 ml LB top agar, were poured onto LB agar plates, and incubated for 18 hr at 37° C. To calculate the fraction of the control for each sample, the average CFU/ml values for treated samples were divided by those from the same sample at 0 h (time=0). Each experiment was repeated at least three times, and a representative experiment is shown. • H33342 Accumulation Assay. The rate of accumulation of the fluorescent dye Hoechst 33342 (H33342), which is a substrate of a wide variety of bacterial efflux pumps (van den Berg van Saparoea, et al., Biochemistry, vol. 44, pp. 16931-16938, (2005)), can be used to estimate the activity of the major efflux pumps in E. coli and many other bacterial species. The H33342 accumulation assay was used to evaluate the effect of EPIs on the activity of the AcrAB-TolC efflux pump in several bacterial species essentially as described (Coldham, et al., J Antimicrob Chemother, vol. 65, pp. 1655-1663, (2010)). […]

Escherichia coli AB1157 = assay: MIC assay (microbroth dilution) ± 25 μM EPI; type: cell-based; conditions: for MICs (μg/ml) ± EPIs: MBX2319 / MICs (μg/ml) ± EPIs: PAβN / MICs (μg/ml) ± EPIs: None: E. coli AB1157 (WT), geometric mean; for MICs (μg/ml) ± EPIs: MBX2319: + 25 μM MBX2319; for MICs (μg/ml) ± EPIs: PAβN: + 25 μM PAβN; for MIC Ratio MBX2319 / MIC Ratio PAβN: E. coli AB1157; for MIC Ratio MBX2319: MIC no cmpd/MIC + 25 μM MBX2319; for MIC Ratio PAβN: MIC no cmpd/MIC + 25 μM PAβN; for MIC: Escherichia coli, AB1157, read-out: MICs (μg/ml) ± EPIs: None; for MICs (μg/ml) ± EPIs: None: no EPI
Text: as §1

[2] = tested on: Shigella flexneri ATCC 12022; assay: MIC assay (microbroth dilution) ± 25 μM EPI; type: cell-based
Text: as §1

Escherichia coli 331 = assay: MIC assay (microbroth dilution) ± 25 μM EPI; type: cell-based; conditions: E. coli 331
Text: as §1

[3] = tested on: Escherichia coli ATCC 25922; assay: MIC assay (microbroth dilution) ± 25 μM EPI; type: cell-based; conditions: E. coli ATCC 25922
Text: as §1

[4] = tested on: Klebsiella pneumoniae ATCC 700603; assay: MIC assay (microbroth dilution) ± 25 μM EPI; type: cell-based
Text: as §1

[5] = tested on: Salmonella enterica ATCC 14028; assay: MIC assay (microbroth dilution) ± 25 μM EPI; type: cell-based
Text: as §1

[6] = tested on: Enterobacter aerogenes ATCC 13048; assay: MIC assay (microbroth dilution) ± 25 μM EPI; type: cell-based
Text: as §1

P. aeruginosa ATCC 27853 = assay: MIC assay (microbroth dilution) ± 25 μM EPI; type: cell-based, Pseudomonas aeruginosa
Text: as §1

| Compound | MIC [1] | MIC Ratio ΔacrB [1] | MICs (μg/ml) ± EPIs: MBX2319 (Escherichia coli AB1157) | MICs (μg/ml) ± EPIs: PAβN (Escherichia coli AB1157) | MIC Ratio MBX2319 (Escherichia coli AB1157) | MIC Ratio PAβN (Escherichia coli AB1157) | MIC (Escherichia coli AB1157) | also measured |
| --- | --- | --- | --- | --- | --- | --- | --- | --- |
| CC1=C(C(=O)O)N2C(=O)[C@@H](NC(=O)[C@H](N)c3ccccc3)[C@H]2SC1 [Cephalexin] | 32 µg/mL | 1 | 16 µg/mL | 16 µg/mL | 2 | 2 | 32 µg/mL | – |
| O=C(O)c1cn(C2CC2)c2cc(N3CCNCC3)c(F)cc2c1=O [Ciprofloxacin] | – | – | – | 0.031 µg/mL | – | – | – | MIC (μg/ml) ± EPI: PAβN ([2]; Shigella flexneri ATCC 12022, + 25 μM PAβN): 0.031 µg/mL; MIC ([2]; Shigella flexneri, ATCC12022, read-out: MIC (μg/ml) ± EPI: None): 0.031 µg/mL; MIC (μg/ml) ± EPI: MBX2319 (Escherichia coli 331; + 25 μM MBX2319): 32 µg/mL; MIC (μg/ml) ± EPI: PAβN (Escherichia coli 331; + 25 μM PAβN): 128 µg/mL; MIC (Escherichia coli 331; Escherichia coli, no EPI, read-out: MIC (μg/ml) ± EPI: None): 128 µg/mL; MIC (μg/ml) ± EPI: MBX2319 ([3]; + 25 μM MBX2319): 0.005 µg/mL; MIC (μg/ml) ± EPI: PAβN ([3]; + 25 μM PAβN): 0.022 µg/mL; MIC (μg/ml) ± EPI: MBX2319 ([4]; + 25 μM MBX2319): 0.088 µg/mL; MIC (μg/ml) ± EPI: PAβN ([4]; + 25 μM PAβN): 0.25 µg/mL; MIC ([4]; ATCC700603, no EPI, read-out: MIC (μg/ml) ± EPI: None): 0.29 µg/mL; MIC (μg/ml) ± EPI: MBX2319 ([5]; + 25 μM MBX2319): 0.008 µg/mL; MIC (μg/ml) ± EPI: PAβN ([5]; + 25 μM PAβN): 0.044 µg/mL; MIC ([5]; ATCC14028, no EPI, read-out: MIC (μg/ml) ± EPI: None): 0.031 µg/mL; MIC (μg/ml) ± EPI: MBX2319 ([6]; + 25 μM MBX2319): 0.008 µg/mL; MIC (μg/ml) ± EPI: PAβN ([6]; + 25 μM PAβN): 0.031 µg/mL; MIC ([6]; Klebsiella aerogenes, ATCC13048, no EPI, read-out: MIC (μg/ml) ± EPI: None): 0.037 µg/mL; MIC (μg/ml) ± EPI: PAβN (P. aeruginosa ATCC 27853; + 25 μM PAβN): 0.149 µg/mL; MIC (P. aeruginosa ATCC 27853; Pseudomonas aeruginosa, ATCC27853, no EPI, read-out: MIC (μg/ml) ± EPI: None): 0.21 µg/mL |
| Cc1onc(-c2ccccc2)c1C(=O)N[C@@H]1C(=O)N2[C@@H]1SC(C)(C)[C@@H]2C(=O)O [Oxacillin] | 4 µg/mL | – | 64 µg/mL | – | – | – | 512 µg/mL | – |
| CCn1cc(C(=O)O)c(=O)c2ccc(C)nc21 [Nalidixic acid] | 8 µg/mL | 2 | 8 µg/mL | 1 µg/mL | 2 | 16 | 16 µg/mL | – |
| CCn1cc(C(=O)O)c(=O)c2cc(F)c(N3CCNCC3)cc21 [Norfloxacin] | 0.016 µg/mL | 4 | 0.063 µg/mL | 0.063 µg/mL | 1 | 1 | 0.063 µg/mL | – |
| Cc1onc(-c2ccccc2Cl)c1C(=O)N[C@@H]1C(=O)N2[C@@H]1SC(C)(C)[C@@H]2C(=O)O [Cloxacillin] | 4 µg/mL | 64 | 128 µg/mL | 64 µg/mL | 2 | 4 | 256 µg/mL | – |
| CC[n+]1c(-c2ccccc2)c2cc(N)ccc2c2ccc(N)cc21 [Ethidium Br, Ethidium Bromide] | 8 µg/mL | 32 | 256 µg/mL | 16 µg/mL | 1 | 16 | 256 µg/mL | – |
| Oc1cc(Cl)ccc1Oc1ccc(Cl)cc1Cl [Irgasan] | – | 8 | 0.125 µg/mL | 0.031 µg/mL | 2 | 8 | – | MICs (μg/ml) ΔacrB None [1]: 0.031 µg/mL; MICs (μg/ml) ± EPIs: None (Escherichia coli AB1157): 0.25 µg/mL |
| CN(C)[C@@H]1C(O)=C(C(N)=O)C(=O)[C@@]2(O)C(O)=C3C(=O)c4c(O)cccc4[C@@](C)(O)[C@H]3C[C@@H]12 [Tetracycline] | 0.5 µg/mL | – | – | – | – | – | – | – |
| CC1(C)S[C@@H]2[C@H](NC(=O)[C@H](N)c3ccc(O)cc3)C(=O)N2[C@H]1C(=O)O [Amoxacillin] | – | 0.5 | 4 µg/mL | 4 µg/mL | 1 | 1 | – | MICs (μg/ml) ΔacrB None [1]: 8 µg/mL; MICs (μg/ml) ± EPIs: None (Escherichia coli AB1157): 4 µg/mL |
| O=C(N[C@H](CO)[C@H](O)c1ccc([N+](=O)[O-])cc1)C(Cl)Cl [Cloramphenicol] | – | 4 | 2 µg/mL | 2 µg/mL | 4 | 4 | – | MICs (μg/ml) ΔacrB None [1]: 2 µg/mL; MICs (μg/ml) ± EPIs: None (Escherichia coli AB1157): 8 µg/mL |
| CN(C)c1ccc(C(=C2C=CC(=[N+](C)C)C=C2)c2ccc(N(C)C)cc2)cc1 [Crystal violet] | 1 µg/mL | 16 | 8 µg/mL | 1 µg/mL | 2 | 16 | 16 µg/mL | – |
| CO[C@H]1/C=C/O[C@@]2(C)Oc3c(C)c(O)c4c(O)c(c(/C=N/N5CCN(C)CC5)c(O)c4c3C2=O)NC(=O)/C(C)=C\C=C\[C@H](C)[C@H](O)[C@@H](C)[C@@H](O)[C@@H](C)[C@H](OC(C)=O)[C@@H]1C [Rifampicin] | 8 µg/mL | – | 8 µg/mL | – | – | – | 8 µg/mL | – |
| Gentamicin | – | 1 | 8 µg/mL | 8 µg/mL | 0.5 | 0.5 | – | MICs (μg/ml) ΔacrB None [1]: 4 µg/mL; MICs (μg/ml) ± EPIs: None (Escherichia coli AB1157): 4 µg/mL |
